This assay deals with T1, CB-1 receptor (Homo sapiens, UniProt P21554).
T1 construct: expressed in transfected cells; host or cells: HEK 293 cells (membrane preparation); cDNA obtained from Dr. Debra Kendall, University of Connecticut
The assay can be described thus: Human CB-1 receptor binding ([3H]SR141716A displacement). The settings on record: CB-1 receptor binding assay, inhibition of [3H] SR141716A binding. As to the method: Human embryonic kidney 293 (HEK 293) cells transfected with the CB-1 receptor cDNA (obtained from Dr. Debra Kendall, University of Connecticut) were harvested in homogenization buffer (10 mM EDTA, 10 mM EGTA, 10 mM Na Bicarbonate, protease inhibitors; pH=7.4), and homogenized with a Dounce Homogenizer. The homogenate was then spun at 1,000×g for 5 minutes at 4° C. The supernatant was recovered and centrifuged at 25,000×G for 20 minutes at 4° C. The pellet was then re-suspended in 10 ml of homogenization buffer and re-spun at 25,000×G for 20 minutes at 4° C. The final pellet was re-suspended in 1 ml of TME (25 mM Tris buffer (pH=7.4) containing 5 mM MgCl2 and 1 mM EDTA). A protein assay was performed and 200 μl of tissue totaling 20 μg was added to the assay.
The test compounds were diluted in drug buffer (0.5% BSA, 10% DMSO and TME) and then 25 μl were added to a deep well polypropylene plate. [^3H] SR141716A was diluted in a ligand buffer (0.5% BSA plus TME) and 25 μl were added to the plate. The plates were covered and placed in an incubator at 30° C. for 60 minutes. At the end of the incubation period 250 μl of stop buffer (5% BSA plus TME) was added to the reaction plate. […] In the morning the filters were counted on a Wallac Betaplate™ counter (available from PerkinElmer Life Sciences™, Boston, Mass.).

T1 sequence (P21554 whole entry): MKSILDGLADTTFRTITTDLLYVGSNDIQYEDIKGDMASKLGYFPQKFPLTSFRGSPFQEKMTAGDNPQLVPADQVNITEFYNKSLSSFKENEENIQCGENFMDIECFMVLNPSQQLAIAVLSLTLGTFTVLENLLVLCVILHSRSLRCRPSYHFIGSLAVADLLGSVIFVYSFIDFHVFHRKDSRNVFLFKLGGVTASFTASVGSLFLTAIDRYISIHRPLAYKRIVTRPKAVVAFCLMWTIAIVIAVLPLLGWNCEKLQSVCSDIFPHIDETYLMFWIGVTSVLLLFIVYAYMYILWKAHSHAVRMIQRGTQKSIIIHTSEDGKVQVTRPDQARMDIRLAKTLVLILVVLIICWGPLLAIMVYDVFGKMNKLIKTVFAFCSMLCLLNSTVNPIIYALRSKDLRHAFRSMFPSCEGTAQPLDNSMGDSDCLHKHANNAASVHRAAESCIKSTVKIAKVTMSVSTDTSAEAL

With `Cc1cccc(CN2CCOC(c3nn(-c4ccccc4Cl)c(-c4ccc(Cl)cc4)c3C)C2)n1` (stereo not shown) [Example 5A-6, 2-[1-(2-Chlorophenyl)-5-(4-chlorophenyl)-4-methyl-1H-pyrazol-3-yl]-4-(6-methyl-pyridin-2-ylmethyl)-morpholine], the binding affinity was 79 nM.

Source of the values: patent US7247628B2, “Cannabinoid receptor ligands and uses thereof” (Pfizer, Inc., priority 2002, dated 2007).
